Measurements as given in PubChem BioAssay AID1918947 (Molecular Pharmacology Branch, DTP, NCI, 2023).

Tested on: A498 complex spheroid viability
Assay: Anticancer human tumor A498 cell line growth inhibition;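 note: spheroids exposed to agents for seven days before readout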;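 for viability, T/C: 100% = DMSO vehicle-treated spheroids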
Conditions: for IC50: curve of first compound; for viability, T/C: stronger effect = lower value
How it was run: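 Multicellular complex spheroids of tumor cells with human endothelial cells (HUVEC) and mesenchymal stem cells; the LSD1 inhibitor iadademstat was combined with standard-of-care or investigational agents. Top concentration at or near clinical Cmax, half-log dilutions; final DMSO ≤0.25%.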

[1] = second compound 0.1 µM, first compound 0.00316 µM
[2] = second compound 0.1 µM, first compound 0.01 µM
[3] = second compound 0.1 µM, first compound 0.0316 µM
[4] = second compound 0.1 µM, first compound 0.1 µM
[5] = second compound 0.316 µM, first compound 0.00316 µM
[6] = second compound 0.316 µM, first compound 0.01 µM
[7] = second compound 0.316 µM, first compound 0.0316 µM
[8] = second compound 0.316 µM, first compound 0.1 µM
[9] = second compound 1 µM, first compound 0.00316 µM
[10] = second compound 1 µM, first compound 0.01 µM
[11] = second compound 1 µM, first compound 0.0316 µM
[12] = second compound 1 µM, first compound 0.1 µM
[13] = second compound 3.16 µM, first compound 0.00316 µM
[14] = second compound 3.16 µM, first compound 0.01 µM
[15] = second compound 3.16 µM, first compound 0.0316 µM
[16] = second compound 3.16 µM, first compound 0.1 µM
[17] = second compound 10 µM, first compound 0.00316 µM
[18] = second compound 10 µM, first compound 0.01 µM
[19] = second compound 10 µM, first compound 0.0316 µM
[20] = second compound 10 µM, first compound 0.1 µM
[21] = second compound 0.1 µM, first compound 0.316 µM
[22] = second compound 0.1 µM, first compound 1 µM
[23] = second compound 0.316 µM, first compound 0.316 µM
[24] = second compound 0.316 µM, first compound 1 µM
[25] = second compound 1 µM, first compound 0.316 µM
[26] = second compound 1 µM, first compound 1 µM
[27] = second compound 3.16 µM, first compound 0.316 µM
[28] = second compound 3.16 µM, first compound 1 µM
[29] = second compound 10 µM, first compound 0.316 µM
[30] = second compound 10 µM, first compound 1 µM

Question: With CC(C)CC(NC(=O)CNC(=O)c1cc(Cl)ccc1Cl)B1OC(=O)CC(CC(=O)O)(C(=O)O)O1 (stereo not given) + NC1CCC(NC2CC2c2ccccc2)CC1 as the compound, how does the IC50 (second compound 0.1 µM) read?
Answer: The IC50 was 4.58 nM.

Question: And the IC50 (second compound 0.316 µM)?
Answer: Its IC50 is 4.93 nM.

Question: And the IC50 (second compound 1 µM)?
Answer: Its IC50 is 4.56 nM.

Question: And the IC50 (second compound 3.16 µM)?
Answer: The IC50 was 4.16 nM.

Question: What about the IC50 (second compound 10 µM) of the same compound?
Answer: The IC50 was 2.95 nM.

Question: And the viability, T/C (second compound 0.1 µM, first compound 0.000316 µM)?
Answer: Its viability, T/C is 86.6%.

Question: And the viability, T/C (second compound 0.1 µM, first compound 0.001 µM)?
Answer: Its viability, T/C is 91.6%.

Question: What about the viability, T/C [1] of the same compound?
Answer: Its viability, T/C is 64.4%.

Question: What about the viability, T/C [2] of the same compound?
Answer: The viability, T/C was 18.1%.

Question: What about the viability, T/C [3] of the same compound?
Answer: The viability, T/C was 4.94%.

Question: What about the viability, T/C [4] of the same compound?
Answer: The viability, T/C was 3.27%.

Question: What about the viability, T/C (second compound 0.316 µM, first compound 0.000316 µM) of the same compound?
Answer: The viability, T/C was 94.3%.

Question: And the viability, T/C (second compound 0.316 µM, first compound 0.001 µM)?
Answer: The viability, T/C was 102%.

Question: And the viability, T/C [5]?
Answer: Its viability, T/C is 72%.

Question: What about the viability, T/C [6] of the same compound?
Answer: The viability, T/C was 14.6%.

Question: And the viability, T/C [7]?
Answer: Its viability, T/C is 5.43%.

Question: And the viability, T/C [8]?
Answer: Its viability, T/C is 2.63%.

Question: What about the viability, T/C (second compound 1 µM, first compound 0.000316 µM) of the same compound?
Answer: The viability, T/C was 87.7%.

Question: What about the viability, T/C (second compound 1 µM, first compound 0.001 µM) of the same compound?
Answer: The viability, T/C was 96.5%.

Question: And the viability, T/C [9]?
Answer: Its viability, T/C is 65.5%.

Question: What about the viability, T/C [10] of the same compound?
Answer: Its viability, T/C is 15.4%.

Question: And the viability, T/C [11]?
Answer: Its viability, T/C is 3.18%.

Question: What about the viability, T/C [12] of the same compound?
Answer: Its viability, T/C is 1.44%.

Question: And the viability, T/C (second compound 3.16 µM, first compound 0.000316 µM)?
Answer: The viability, T/C was 84.3%.

Question: And the viability, T/C (second compound 3.16 µM, first compound 0.001 µM)?
Answer: Its viability, T/C is 91.2%.

Question: And the viability, T/C [13]?
Answer: Its viability, T/C is 62.4%.

Question: What about the viability, T/C [14] of the same compound?
Answer: The viability, T/C was 9.48%.

Question: What about the viability, T/C [15] of the same compound?
Answer: Its viability, T/C is 2.6%.

Question: What about the viability, T/C [16] of the same compound?
Answer: Its viability, T/C is 0.83%.

Question: And the viability, T/C (second compound 10 µM, first compound 0.000316 µM)?
Answer: Its viability, T/C is 74.9%.

Question: And the viability, T/C (second compound 10 µM, first compound 0.001 µM)?
Answer: The viability, T/C was 83.3%.

Question: What about the viability, T/C [17] of the same compound?
Answer: The viability, T/C was 47.5%.

Question: And the viability, T/C [18]?
Answer: Its viability, T/C is 7.21%.

Question: What about the viability, T/C [19] of the same compound?
Answer: The viability, T/C was 1.59%.

Question: And the viability, T/C [20]?
Answer: The viability, T/C was 0.69%.

Question: O=C(C=Cn1cnc(-c2cc(C(F)(F)F)cc(C(F)(F)F)c2)n1)NNc1cnccn1 + NC1CCC(NC2CC2c2ccccc2)CC1 was tested. Which IC50 (second compound 0.1 µM) did it give?
Answer: The IC50 was 5.21 nM.

Question: And the IC50 (second compound 0.316 µM)?
Answer: The IC50 was 7.74 nM.

Question: And the IC50 (second compound 1 µM)?
Answer: Its IC50 is 6.26 nM.

Question: What about the IC50 (second compound 3.16 µM) of the same compound?
Answer: Its IC50 is 6.7 nM.

Question: What about the IC50 (second compound 10 µM) of the same compound?
Answer: The IC50 was 4.09 nM.

Question: And the viability, T/C [1]?
Answer: The viability, T/C was 56.5%.

Question: What about the viability, T/C [2] of the same compound?
Answer: Its viability, T/C is 40.9%.

Question: What about the viability, T/C [3] of the same compound?
Answer: Its viability, T/C is 33.6%.

Question: What about the viability, T/C [4] of the same compound?
Answer: The viability, T/C was 26.6%.

Question: And the viability, T/C [21]?
Answer: The viability, T/C was 24.9%.

Question: What about the viability, T/C [22] of the same compound?
Answer: Its viability, T/C is 20.9%.

Question: And the viability, T/C [5]?
Answer: Its viability, T/C is 66.7%.

Question: And the viability, T/C [6]?
Answer: The viability, T/C was 44.4%.

Question: And the viability, T/C [7]?
Answer: The viability, T/C was 33.5%.

Question: What about the viability, T/C [8] of the same compound?
Answer: Its viability, T/C is 31.2%.

Question: And the viability, T/C [23]?
Answer: Its viability, T/C is 24.1%.

Question: What about the viability, T/C [24] of the same compound?
Answer: The viability, T/C was 23.4%.

Question: And the viability, T/C [9]?
Answer: The viability, T/C was 62.4%.

Question: What about the viability, T/C [10] of the same compound?
Answer: The viability, T/C was 39.2%.

Question: And the viability, T/C [11]?
Answer: Its viability, T/C is 34.1%.

Question: And the viability, T/C [12]?
Answer: The viability, T/C was 27.1%.

Question: What about the viability, T/C [25] of the same compound?
Answer: The viability, T/C was 21.9%.

Question: What about the viability, T/C [26] of the same compound?
Answer: Its viability, T/C is 21.2%.

Question: What about the viability, T/C [13] of the same compound?
Answer: The viability, T/C was 61.5%.

Question: What about the viability, T/C [14] of the same compound?
Answer: The viability, T/C was 42.6%.

Question: What about the viability, T/C [15] of the same compound?
Answer: Its viability, T/C is 34.1%.

Question: And the viability, T/C [16]?
Answer: Its viability, T/C is 26.9%.

Question: And the viability, T/C [27]?
Answer: Its viability, T/C is 21.5%.

Question: What about the viability, T/C [28] of the same compound?
Answer: Its viability, T/C is 20.5%.

Question: What about the viability, T/C [17] of the same compound?
Answer: Its viability, T/C is 53.4%.

Question: What about the viability, T/C [18] of the same compound?
Answer: The viability, T/C was 39.2%.

Question: What about the viability, T/C [19] of the same compound?
Answer: The viability, T/C was 31.1%.

Question: And the viability, T/C [20]?
Answer: The viability, T/C was 26.4%.

Question: And the viability, T/C [29]?
Answer: Its viability, T/C is 22.9%.

Question: And the viability, T/C [30]?
Answer: The viability, T/C was 16.4%.

Question: Which results are given for O=C(C=Cn1cnc(-c2cc(C(F)(F)F)cc(C(F)(F)F)c2)n1)NNc1cnccn1 + NC1CC1c1ccc(-c2cccc(O)c2)cc1?
Answer: IC50 (second compound 0.1 µM): 11.8 nM; IC50 (second compound 0.316 µM): 9.73 nM; IC50 (second compound 1 µM): 9.22 nM; IC50 (second compound 3.16 µM): 6.36 nM; IC50 (second compound 10 µM): 7.24 nM; viability, T/C [1]: 69.8%; viability, T/C [2]: 50.3%; viability, T/C [3]: 40.5%; viability, T/C [4]: 29.3%; viability, T/C [21]: 25.2%; viability, T/C [22]: 19.3%; viability, T/C [5]: 72.2%; viability, T/C [6]: 47.7%; viability, T/C [7]: 37.5%; viability, T/C [8]: 28.8%; viability, T/C [23]: 25.8%; viability, T/C [24]: 20.1%; viability, T/C [9]: 70.9%; viability, T/C [10]: 46.9%; viability, T/C [11]: 37.1%; viability, T/C [12]: 28.4%; viability, T/C [25]: 27.8%; viability, T/C [26]: 20.7%; viability, T/C [13]: 61%; viability, T/C [14]: 41.9%; viability, T/C [15]: 34.8%; viability, T/C [16]: 26.8%; viability, T/C [27]: 27%; viability, T/C [28]: 22.3%; viability, T/C [17]: 61.3%; viability, T/C [18]: 43.8%; viability, T/C [19]: 36.5%; viability, T/C [20]: 31.8%; viability, T/C [29]: 24.1%; viability, T/C [30]: 21.6%
